Measured values taken from PMC3960075 (ACS chemical biology, 2012).
Entries after “also recorded” stand apart in the source; their conditions may differ.

Assays:
[1] = biological target: T1, PAN endonuclease (influenza virus PA N-terminal domain) (Influenza A virus, UniProt Q5EP34); format: binding
influenza A/PR/8/34 = assay: microbe, parasite or virus in culture; format: cell-based, avian H1N1 influenza A virus (A/PuertoRico/8/34); conditions: for IC50: Influenza A virus, PR/8, MDCK, read-out: IC50, viral plaque inhibition
in vitro = conditions: dog
immunoglobulin G (IgG) = assay: Direct binding FP specificity control with IgG; conditions: IgG 2-fold serial dilutions from 100 μM, 4 at 60 nM
[2] = biological target: T1, PAN endonuclease (influenza virus PA N-terminal domain); format: binding; remark: listed apart in the source

Compound | FP competitive binding, result in words [1] | IC50 (influenza A/PR/8/34) | other results
O=C(O)C(=O)C1=C(O)c2ccccc2OC1 [Compound 14] | inactive | – | –
O=C(O)c1nc(-c2cnccn2)nc(O)c1O [Compound 31] | – | > 50 µM | –
COc1ccc2c(c1)CC(C(=O)C(=O)O)=C2O [Compound 15] | inactive | – | –
C[C@H](NC(=O)c1nc(-c2cnccn2)[nH]c(=O)c1O)c1ccccc1 [Compound 44] | – | 18.61 ± 0.09 µM | CC50 (in vitro): > 60 µM
O=C(O)CCC(=O)c1ccccc1 [Compound 19] | no inhibition; also recorded: inactive | – | –
CC(C)(C)OC(=O)/C(O)=C/C(=O)c1ccccc1 [Compound 17] | inactivity | – | –
O=C(NCCc1ccccc1)c1nc(-c2cnccn2)[nH]c(=O)c1O [Compound 43] | – | > 100 µM | Inhibition of viral plaque formation, result in words (influenza A/PR/8/34): inactive
O=C(O)/C(O)=C/C(=O)C1(Cc2ccc(Cl)cc2)CCN(C(=O)c2ccc(-c3c4ccc(=O)cc-4oc4cc(O)ccc34)c(C(=O)O)c2)CC1 [Compound 4] | – | – | Non-specific binding to IgG (immunoglobulin G (IgG)): not observed; dynamic range [2]: 124.3 ± 0.9 mP
CCC(CC)O[C@@H]1C=C(C(=O)O)C[C@H](N)[C@H]1NC(C)=O [oseltamivir carboxylate, reference compound] | – | – | inhibition of viral plaque formation (influenza A/PR/8/34): 100%
O=C(O)/C=C/C(=O)c1ccccc1 [Compound 18] | inactive | – | –
O=C(O)/C(O)=C/C(=O)c1cccnc1 [Compound 13] | inactive | – | –
CC(NC(=O)c1nc(-c2cnccn2)[nH]c(=O)c1O)c1ccccc1 (centres unmarked) [Compound 42] | – | 14.28 ± 0.07 µM | CC50 (in vitro): > 60 µM
O=C(O)/C(O)=C/C(=O)C1(Cc2ccc(Cl)cc2)CCN(Cc2ccccc2)CC1 [Compound 2, reference compound] | – | 3.13 ± 0.08 µM | inhibition (displacement of 4 from PAN) ([1]; 250 µM): 100%
COC(=O)/C(O)=C/C(=O)c1ccccc1 [Compound 16, reference compound] | inactivity | > 100 µM | Inhibition of viral plaque formation, result in words (influenza A/PR/8/34): inactive
C[C@@H](NC(=O)c1nc(-c2cnccn2)[nH]c(=O)c1O)c1ccccc1 [Compound 45] | – | 12.68 ± 0.08 µM | CC50 (in vitro): > 60 µM
